Experiment [1] deals with T1, human orexin-1 receptor (hOX1R) (Homo sapiens, UniProt O43613).
T1 construct: expressed in transfected cells; host or cells: Chinese hamster ovary (CHO) cells
T1 sequence (O43613 1-425): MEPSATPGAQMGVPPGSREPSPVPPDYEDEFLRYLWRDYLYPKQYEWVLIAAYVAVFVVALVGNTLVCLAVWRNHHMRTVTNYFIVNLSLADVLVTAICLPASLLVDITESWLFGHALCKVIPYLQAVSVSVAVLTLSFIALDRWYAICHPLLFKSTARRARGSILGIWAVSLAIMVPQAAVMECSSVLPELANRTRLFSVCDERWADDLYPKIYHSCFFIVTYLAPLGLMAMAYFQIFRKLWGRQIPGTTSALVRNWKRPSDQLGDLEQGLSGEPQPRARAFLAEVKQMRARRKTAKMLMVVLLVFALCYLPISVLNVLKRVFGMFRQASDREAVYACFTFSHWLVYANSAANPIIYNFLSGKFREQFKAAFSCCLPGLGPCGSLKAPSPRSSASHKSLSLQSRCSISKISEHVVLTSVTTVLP
In words: Measurement of orexin antagonistic activity (intracellular Ca2+ fluorescence, FDSS) on hOX1R. Type of experiment: cell-based. The note with it: CHO cells forcibly expressing hOX1R; Fluo-4AM; ligand peptide (substituted human orexin-A) 300 pM; compound preincubated 30 minutes; read-out: IC50 Value OX1. Here is the method: (§1) The antagonistic activities of the test compounds on human orexin-1 receptor (hOX1R) and orexin-2 receptor (hOX2R) were measured by modifying from the method described in literature (Toshikatsu Okumura et al., Biochemical and Biophysical Research Communications, 280, 976-981, 2001). Chinese hamster ovary (CHO) cells forcibly expressing the hOX1R and hOX2R were seeded into a 96 well Black clear bottom plate (Nunc) at 20,000 cells per well, which were cultured in Ham's F-12 medium containing 0.1 mM MEM non-essential amino acids, 0.5 mg/mL G418, 10% fetal bovine serum (all by Invitrogen) for 16 hours under the conditions of 37° C., 5% CO2. After removing the medium, 100 μL of 0.5 μM Fluo-4AM ester (Dojin) in an assay buffer (25 mM HEPES (Dojin), Hank's balanced salt solution (Invitrogen), 0.1% bovine serum albumin, 2.5 mM probenecid, 200 μg/mL Amaranth (all by Sigma-Aldrich), pH 7.4) was added and the cells were incubated for 60 minutes at 37° C., 5% CO2. After removing the assay buffer containing fluo-4AM ester, the test compound was dissolved in dimethyl sulfoxide to be 10 mM and diluted with the assay buffer, 150 μL, of which was added and incubated for 30 minutes.
(§2) The reaction was measured for the fluorescence intensity of each well every second for 3 minutes using Functional Drug Screening System (FDSS; Hamamatsu Photonics K.K.), and the antagonistic activity was determined using the maximum fluorescence intensity as the indicator of intracellular Ca2+ concentration.

For experiment [2], the target named is T2, orexin-2 receptor (hOX2R) (Homo sapiens, UniProt O43614).
T2 construct: expressed in transfected cells; host or cells: Chinese hamster ovary (CHO) cells
T2 sequence (O43614 1-444): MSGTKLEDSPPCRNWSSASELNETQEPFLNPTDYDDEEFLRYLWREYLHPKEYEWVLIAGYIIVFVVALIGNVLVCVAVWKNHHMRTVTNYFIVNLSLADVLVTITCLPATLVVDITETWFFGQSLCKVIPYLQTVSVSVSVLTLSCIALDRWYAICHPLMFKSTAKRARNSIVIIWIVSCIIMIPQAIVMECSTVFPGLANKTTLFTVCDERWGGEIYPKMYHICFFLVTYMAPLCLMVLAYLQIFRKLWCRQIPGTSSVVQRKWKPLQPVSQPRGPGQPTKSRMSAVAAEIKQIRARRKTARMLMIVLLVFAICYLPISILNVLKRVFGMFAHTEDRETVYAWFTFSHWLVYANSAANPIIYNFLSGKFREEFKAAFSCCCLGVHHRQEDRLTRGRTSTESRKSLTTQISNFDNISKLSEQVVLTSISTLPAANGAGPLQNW
The experiment is described as follows: Measurement of orexin antagonistic activity (intracellular Ca2+ fluorescence, FDSS) on hOX2R. Conditions: CHO cells forcibly expressing hOX2R; Fluo-4AM; ligand peptide (substituted human orexin-A) 3 nM; compound preincubated 30 minutes; read-out: IC50 Value OX2. Type of experiment: cell-based. Here is the method: as §1, §2

For the molecule `CCN(C(=O)c1cc(F)ccc1-c1ncccn1)[C@H](C)Cn1ccc(-c2ccc(F)cc2)n1` [Example 12, N-Ethyl-5-fluoro-N-[(2R)-1-[3-(4-fluorophenyl)-1H-pyrazol-1-yl]propan-2-yl]-2-(pyrimidin-2-yl)benzamide], the IC50 (usually the concentration that inhibits the measured activity by half) in experiment [1] stood at 364 nM; in experiment [2] it was 580 nM.
For the molecule `COCCN(C(=O)c1cc(C)ccc1-n1nccn1)[C@@H](C)Cn1cc(-c2ccc(F)cc2)nn1` [Example 72, N-{(2S)-1-[4-(4-Fluorophenyl)-1H-1,2,3-triazol-1-yl]propan-2-yl}-N-(2-methoxyethyl)-5-methyl-2-(2H-1,2,3-triazol-2-yl)benzamide], the figures for the IC50 in experiment [1] and in experiment [2] were 102 nM and 401 nM, respectively.
In the same order, the values of `CCN(C(=O)c1cc(F)ccc1-c1ncccn1)[C@@H](C)Cn1cc(-c2ccc(F)cn2)cn1` [Example 34, N-Ethyl-5-fluoro-N-{(2S)-1-[4-(5-fluoropyridin-2-yl)-1H-pyrazol-1-yl]propan-2-yl}-2-(pyrimidin-2-yl)benzamide] are 9.8 nM and 334 nM.
In the same order, the values of `COCCN(C(=O)c1cc(C)ccc1-n1nccn1)[C@@H](C)Cn1cc(-c2ccc(F)cn2)cn1` [Example 38, N-{(2S)-1-[4-(5-Fluoropyridin-2-yl)-1H-pyrazol-1-yl]propan-2-yl}-N-(2-methoxyethyl)-5-methyl-2-(2H-1,2,3-triazol-2-yl)benzamide] are 25.5 nM and 351 nM.
With `CCN(C(=O)c1cc(C)ccc1-n1nccn1)[C@@H](C)Cc1nnc(-c2ccc(F)cc2)o1` [Example 76, N-Ethyl-N-{(2S)-1-[5-(4-fluorophenyl)-1,3,4-oxadiazol-2-yl]propan-2-yl}-5-methyl-2-(2H-1,2,3-triazol-2-yl)benzamide], the IC50 in experiment [1] was determined as 1 nM; in experiment [2] it was 59.7 nM.
The like results for `CCN(C(=O)c1cc(C)ccc1-n1nccn1)[C@@H](C)Cc1noc(-c2ccc(F)cc2)n1` [Example 61] were, in that order, 0.7 nM and 3.3 nM.
The like results for `CCN(C(=O)c1nc(C)ccc1-n1nccn1)[C@@H](C)Cc1noc(-c2ccc(F)cn2)n1` [Example 58, N-Ethyl-N-{(2S)-1-[5-(5-fluoropyridin-2-yl)-1,2,4-oxadiazol-3-yl]propan-2-yl}-6-methyl-3-(2H-1,2,3-triazol-2-yl) pyridine-2-carboxamide] were, in that order, 22.2 nM and 1620 nM.
The like results for `Cc1ccc(-n2nccn2)c(C(=O)N(C)[C@@H](C)Cc2noc(-c3ccc(F)cc3)n2)c1` [Example 59, N-{(2S)-1-[5-(4-Fluorophenyl)-1,2,4-oxadiazol-3-yl]propan-2-yl}-N,5-dimethyl-2-(2H-1,2,3-triazol-2-yl) benzamide] were, in that order, 0.5 nM and 10.1 nM.
`CCN(C(=O)c1cc(C)ccc1-n1nccn1)[C@@H](C)Cn1ccc(-c2ccc(F)cn2)n1` [Example 1, N-Ethyl-N-{(2S)-1-[3-(5-fluoropyridin-2-yl)-1H-pyrazol-1-yl]propan-2-yl}-5-methyl-2-(2H-1,2,3-triazol-2-yl)benzamide]: the IC50 was 1 nM in experiment [1] and 1.1 nM in experiment [2].
In the same order, the values of `CCN(C(=O)c1nc(C)ccc1-n1nccn1)[C@@H](C)Cn1nnc(-c2ccc(F)cn2)n1` [Example 86, N-Ethyl-N-{(2S)-1-[5-(5-fluoropyridin-2-yl)-2H-tetrazol-2-yl]propan-2-yl}-6-methyl-3-(2H-1,2,3-triazol-2-yl)pyridine-2-carboxamide] are 37.7 nM and 1030 nM.
The like results for `CCN(C(=O)c1ccc(F)cc1-c1ncccn1)[C@@H](C)Cn1ccc(-c2ccc(F)cc2)n1` [Example 14, N-Ethyl-4-fluoro-N-[(2S)-1-[3-(4-fluorophenyl)-1H-pyrazol-1-yl]propan-2-yl)-2-(pyrimidin-2-yl)benzamide] were, in that order, 1.3 nM and 7 nM.
In the case of `Cc1ccc(-n2nccn2)c(C(=O)N(CCO)[C@@H](C)Cn2ccc(-c3ccc(F)cn3)n2)c1` [Example 44, N-{(2S)-1-[3-(5-Fluoropyridin-2-yl)-1H-pyrazol-1-yl]propan-2-yl}-N-(2-hydroxyethyl)-5-methyl-2-(2H-1,2,3-triazol-2-yl)benzamide], the IC50 in experiment [1] stood at 1.3 nM; in experiment [2] it was 25.9 nM.
In the same order, the values of `CCN(C(=O)c1cc(C)ccc1-n1nccn1)[C@H](C)Cn1ccc(-c2ccc(F)cn2)n1` [Example 2, N-Ethyl-N-{(2R)-1-[3-(5-fluoropyridin-2-yl)-1H-pyrazol-1-yl]propan-2-yl]-5-methyl-2-(2H-1,2,3-triazol-2-yl) benzamide] are 17.4 nM and 186 nM.
The like results for `CCN(C(=O)c1nc(C)ccc1-c1ncccn1)[C@@H](C)Cn1ccc(-c2ccc(F)cc2)n1` [Example 15, N-Ethyl-N-[(2S)-1-[3-(4-fluorophenyl)-1H-pyrazol-1-yl]propan-2-yl}-6-methyl-3-(pyrimidin-2-yl)pyridine-2-carboxamide] were, in that order, 1.2 nM and 18 nM.
Consider `CCN(C(=O)c1ccccc1-n1nccn1)[C@@H](C)Cn1ccc(-c2ccc(F)cn2)n1` [Example 18, N-Ethyl-N-{(2S)-1-[3-(5-fluoropyridin-2-yl)-1H-pyrazol-1-yl]propan-2-yl}-2-(2H-1,2,3-triazol-2-yl)benzamide], for which the IC50 in experiment [1] was 0.7 nM; in experiment [2], 7.7 nM.
Consider `Cc1ccc(-n2nccn2)c(C(=O)N(CCN(C)C)[C@@H](C)Cn2cc(-c3ccc(F)cc3)nn2)c1` [Example 89, N-[2-(Dimethylamino)ethyl]-N-{(2S)-1-[4-(4-fluorophenyl)-1H-1,2,3-triazol-1-yl]propan-2-yl}-5-methyl-2-(2H-1,2,3-triazol-2-yl)benzamide], for which the IC50 in experiment [1] turned out to be 229 nM; in experiment [2], 6930 nM.
The like results for `CCN(C(=O)c1cc(C)ccc1-n1nccn1)[C@@H](C)Cn1cc(-c2ccccc2)nn1` [Example 95, N-Ethyl-5-methyl-N-[(2S)-1-(4-phenyl-1H-1,2,3-triazol-1-yl)propan-2-yl]-2-(2H-1,2,3-triazol-2-yl)benzamide] were, in that order, 0.6 nM and 17.7 nM.
In the same order, the values of `CCN(C(=O)c1cc(C)ccc1-n1nccn1)[C@@H](C)Cn1cc(-c2cccc(F)c2)nn1` [Example 98, N-Ethyl-N-{(2S)-1-[4-(3-fluorophenyl)-1H-1,2,3-triazol-1-yl]propan-2-yl}-5-methyl-2-(2H-1,2,3-triazol-2-yl) benzamide] are 6.3 nM and 9.8 nM.
Consider `C[C@@H](Cn1ccc(-c2ccc(F)cn2)n1)N(C)C(=O)c1ccccc1-c1ncccn1` [Example 4, N-[(2S)-1-[3-(5-Fluoropyridin-2-yl)-1H-pyrazol-1-yl]propan-2-yl]-N-methyl-2-(pyrimidin-2-yl)benzamide], for which the IC50 worked out at 1.7 nM in experiment [1] and 67 nM in experiment [2].
The like results for `CCN(C(=O)c1cc(C)ccc1-c1ncccn1)[C@@H](C)Cn1cc(-c2ccc(F)cn2)cn1` [Example 35, N-Ethyl-N-{(2S)-1-[4-(5-fluoropyridin-2-yl)-1H-pyrazol-1-yl]propan-2-yl}-5-methyl-2-(pyrimidin-2-yl)benzamide] were, in that order, 3.4 nM and 62.8 nM.
Consider `Cc1ccc(-c2ncccn2)c(C(=O)N(C)[C@@H](C)Cn2ccc(-c3ccc(F)cn3)n2)c1` [Example 6, N-{(2S)-1-[3-(5-Fluoropyridin-2-yl)-1H-pyrazol-1-yl]propan-2-yl}-N,5-dimethyl-2-(pyrimidin-2-yl) benzamide], for which the IC50 in experiment [1] is 1.2 nM; in experiment [2], 8.4 nM.
